Results reported in US20180148418A1, “AMIDO-SUBSTITUTED CYCLOHEXANE DERIVATIVES” (Bayer Pharma Aktiengesellschaft, priority 2015, published 2018).

Experiments:
[1] = system: wildtype Wnt signaling cascade; experiment: HEK293 TOP assay (Super TopFlash luciferase reporter, Wnt-3a stimulated); type: cell-based; settings: Homo sapiens, HEK293, 16 h, HEK293 TOP reporter cells, Wnt3a at EC50, 16 hours
Outline: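 HEK293 cells stably carrying Super TopFlash (TOP) run in parallel with FOP cells, 10000/well plated 24 h ahead, stimulated with recombinant human Wnt-3a. Compounds tested 50 μM to 15 nM in 3.16-fold steps in CAFTY buffer pH 7.4 with 2 mM Ca^2+ and 0.01% BSA; luciferase read-out.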

TNKS1 = target: T1, TNKS1 (Homo sapiens, UniProt O95271); experiment: TNKS1 Assay B (auto-parsylation, [3H]-NAD+ SPA); type: biochemical; settings: 6 nM TNKS1, auto-parsylation, over night at room temperature
T1 construct: purchased BPS Bioscience, San Diego, USA 80579 (TNKS1 Histone Ribosylation Assay Kit)
T1 sequence (O95271 1-1327): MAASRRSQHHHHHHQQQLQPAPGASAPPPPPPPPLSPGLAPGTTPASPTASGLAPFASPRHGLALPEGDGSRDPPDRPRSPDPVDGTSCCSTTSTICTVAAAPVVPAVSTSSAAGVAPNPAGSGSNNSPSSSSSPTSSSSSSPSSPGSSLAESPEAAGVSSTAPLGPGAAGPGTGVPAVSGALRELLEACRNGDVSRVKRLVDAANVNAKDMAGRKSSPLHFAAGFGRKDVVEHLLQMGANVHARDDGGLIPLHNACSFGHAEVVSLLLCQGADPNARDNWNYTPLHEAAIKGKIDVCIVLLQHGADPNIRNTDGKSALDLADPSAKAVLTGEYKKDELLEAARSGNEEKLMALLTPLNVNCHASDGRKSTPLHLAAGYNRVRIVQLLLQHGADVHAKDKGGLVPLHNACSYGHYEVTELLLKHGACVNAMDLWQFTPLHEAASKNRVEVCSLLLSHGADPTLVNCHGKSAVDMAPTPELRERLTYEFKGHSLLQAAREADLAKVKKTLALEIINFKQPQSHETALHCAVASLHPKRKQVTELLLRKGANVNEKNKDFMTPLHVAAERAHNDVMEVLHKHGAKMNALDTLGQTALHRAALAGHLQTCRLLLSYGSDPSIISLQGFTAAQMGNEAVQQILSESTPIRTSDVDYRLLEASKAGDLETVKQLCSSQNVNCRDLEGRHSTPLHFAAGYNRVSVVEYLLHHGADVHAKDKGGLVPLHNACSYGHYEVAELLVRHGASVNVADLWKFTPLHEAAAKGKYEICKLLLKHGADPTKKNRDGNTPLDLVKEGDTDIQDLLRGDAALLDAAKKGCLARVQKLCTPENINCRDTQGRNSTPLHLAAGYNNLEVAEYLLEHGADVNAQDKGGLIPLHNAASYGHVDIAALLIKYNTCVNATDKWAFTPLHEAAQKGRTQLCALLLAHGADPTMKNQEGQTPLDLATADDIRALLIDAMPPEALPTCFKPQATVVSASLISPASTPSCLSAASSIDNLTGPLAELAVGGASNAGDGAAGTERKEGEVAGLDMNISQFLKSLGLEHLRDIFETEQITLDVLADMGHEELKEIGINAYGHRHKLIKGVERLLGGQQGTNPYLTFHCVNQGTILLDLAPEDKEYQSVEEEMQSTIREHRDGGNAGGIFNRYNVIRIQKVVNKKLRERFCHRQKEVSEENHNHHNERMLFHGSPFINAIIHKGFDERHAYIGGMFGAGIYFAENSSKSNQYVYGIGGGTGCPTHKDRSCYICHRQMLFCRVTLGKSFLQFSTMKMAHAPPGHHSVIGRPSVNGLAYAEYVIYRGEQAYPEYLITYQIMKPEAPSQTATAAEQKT

| SMILES | IC50 [1] [µM] | IC50 (TNKS1) [µM] |
| --- | --- | --- |
| CNC(=O)c1[nH]cnc1C(=O)N[C@@H]1CC[C@@H](C(=O)Nc2ccc(F)cc2Cl)C[C@@H]1F (racemic) [Example 31, N^4-{(1α,2α,4β)-4-[(2-chloro-4-fluorophenyl)carbamoyl]-2-fluorocyclohexyl}-N^5-methyl-1H-imidazole-4,5-dicarboxamide] | 0.25 | 0.15 |
| CNC(=O)c1[nH]cnc1C(=O)N[C@@H]1CC[C@@H](C(=O)Nc2ccc(F)cc2Cl)C[C@H]1OC (racemic) [Example 35, N^4-{(1α,2β,4β)-4-[(2-chloro-4-fluorophenyl)carbamoyl]-2-methoxycyclohexyl}-N^5-methyl-1H-imidazole-4,5-dicarboxamide] | 17 | > 10 |
| CNC(=O)c1[nH]cnc1C(=O)N[C@H]1CC[C@H](C(=O)Nc2ccc(F)cc2Cl)CC1(F)F (single isomer, unassigned) [Example 33, N^4-{(trans)-4-[(2-chloro-4-fluorophenyl)carbamoyl]-2,2-difluorocyclohexyl}-N^5-methyl-1H-imidazole-4,5-dicarboxamide] | 0.7 | 0.72 |
| CNC(=O)c1[nH]cnc1C(=O)NC1CCC(C(=O)Nc2ccc(F)cc2Cl)CC1C (single isomer, unassigned) [Example 41, N^4-{4-[(2-chloro-4-fluorophenyl)carbamoyl]-2-methylcyclohexyl}-N^5-methyl-1H-imidazole-4,5-dicarboxamide] | 21 | > 10 |
| O=C(NC1CCC(F)(C(=O)Nc2ccc(F)cc2Cl)CC1)c1cnn2cccnc12 (single isomer, unassigned) [Example 365, N-{4-[(2-chloro-4-fluorophenyl)carbamoyl]-4-fluorocyclohexyl}pyrazolo[1,5-a]pyrimidine-3-carboxamide (single isomer)] | 21 | > 10 |
| CNC(=O)c1[nH]cnc1C(=O)NC1CCC(F)(C(=O)Nc2ccc(F)cc2Cl)CC1 (single isomer, unassigned) [Example 366, N^4-{4-[(2-chloro-4-fluorophenyl)carbamoyl]-4-fluorocyclohexyl}-N^5-methyl-1H-imidazole-4,5-dicarboxamide (single isomer)] | 25 | > 10 |
| CNC(=O)c1[nH]cnc1C(=O)N[C@@H]1CC[C@@H](C(=O)Nc2ccc(F)cc2Cl)CC1(F)F (stereo in doubt) [Example 32, N^4-{(trans)-4-[(2-chloro-4-fluorophenyl)carbamoyl]-2,2-difluorocyclohexyl}-N^5-methyl-1H-imidazole-4,5-dicarboxamide] | 0.27 | 0.36 |
| O=C(NCC1CCCO1)c1nc[nH]c1C(=O)N[C@H]1CC[C@H](C(=O)Nc2c(F)cc(F)cc2Cl)CC1 (stereo in doubt) [Example 71, N^5-{trans-4-[(2-chloro-4,6-difluorophenyl)carbamoyl]cyclohexyl}-N^4-[(2R)-tetrahydrofuran-2-ylmethyl]-1H-imidazole-4,5-dicarboxamide] | 0.1 | 0.18 |
| CNC(=O)c1nc[nH]c1C(=O)N[C@H]1CC[C@H](C(=O)Nc2ccc(F)cc2Cl)CC1 [Example 1, N^5-{trans-4-[(2-chloro-4-fluorophenyl)carbamoyl]cyclohexyl}-N^4-methyl-1H-imidazole-4,5-dicarboxamide] | 0.052 | 0.073 |
| O=C(N[C@H]1CC[C@H](C(=O)Nc2ccc(F)cc2Cl)CC1)c1[nH]cnc1C(=O)N1CC2(CCS2(=O)=O)C1 [Example 22, N-{trans-4-[(2-chloro-4-fluorophenyl)carbamoyl]cyclohexyl}-4-[(1,1-dioxido-1-thia-6-azaspiro[3.3]hept-6-yl)carbonyl]-1H-imidazole-5-carboxamide] | 0.024 | 0.01 |
| O=C(N[C@H]1CC[C@H](C(=O)Nc2ccc(F)cc2Cl)CC1)c1[nH]cnc1C(=O)N1CCC1 [Example 23, 4-(azetidin-1-ylcarbonyl)-N-{trans-4-[(2-chloro-4-fluorophenyl)carbamoyl]cyclohexyl}-1H-imidazole-5-carboxamide] | 0.11 | 0.021 |
| COC1CN(C(=O)c2nc[nH]c2C(=O)N[C@H]2CC[C@H](C(=O)Nc3ccc(F)cc3Cl)CC2)C1 [Example 24, 4 N-{trans-4-[(2-chloro-4-fluorophenyl)carbamoyl]cyclohexyl}-4-[(3-methoxyazetidin-1-yl)carbonyl]-1H-imidazole-5-carboxamide] | 0.086 | 0.021 |
| O=C(NCCN1CC2(CCO2)C1)c1nc[nH]c1C(=O)N[C@H]1CC[C@H](C(=O)Nc2ccc(F)cc2Cl)CC1 [Example 25, N^5-{trans-4-[(2-chloro-4-fluorophenyl)carbamoyl]cyclohexyl}-N^4-[2-(1-oxa-6-azaspiro[3.3]hept-6-yl)ethyl]-1H-imidazole-4,5-dicarboxamide] | 0.063 | 0.013 |
| CN(C)C1CN(C(=O)c2nc[nH]c2C(=O)N[C@H]2CC[C@H](C(=O)Nc3ccc(F)cc3Cl)CC2)C1 [Example 26, N-{trans-4-[(2-chloro-4-fluorophenyl)carbamoyl]cyclohexyl}-4-{[3-(dimethylamino)azetidin-1-yl]carbonyl}-1H-imidazole-5-carboxamide] | 0.14 | 0.062 |
| CNC(=O)c1nc[nH]c1C(=O)N[C@H]1CC[C@H](C(=O)Nc2c(Br)cc(F)c(F)c2F)CC1 [Example 27, N^5-{trans-4-[(6-bromo-2,3,4-trifluorophenyl)carbamoyl]cyclohexyl}-N^4-methyl-1H-imidazole-4,5-dicarboxamide] | 0.035 | 0.03 |
| CNC(=O)c1nc[nH]c1C(=O)N[C@H]1CC[C@H](C(=O)Nc2c(F)cc(F)cc2Br)CC1 [Example 28, N^5-{trans-4-[(6-bromo-2,4-difluorophenyl)carbamoyl]cyclohexyl}-N^4-methyl-1H-imidazole-4,5-dicarboxamide] | 0.024 | 0.068 |
| CNC(=O)c1ncoc1C(=O)N[C@H]1CC[C@H](C(=O)Nc2ccc(F)cc2Cl)CC1 [Example 29, N^5-{trans-4-[(2-chloro-4-fluorophenyl)carbamoyl]cyclohexyl}-N^4-methyl-1,3-oxazole-4,5-dicarboxamide] | 0.93 | 0.65 |
| CNC(=O)c1ocnc1C(=O)N[C@H]1CC[C@H](C(=O)Nc2ccc(F)cc2Cl)CC1 [Example 30] | 44 | > 10 |
| Cc1cc(C)n2ncc(C(=O)NC3CCC(C(=O)Nc4ccc(F)cc4Cl)CC3C)c2n1 (centres unmarked) [Example 42, N-{4-[(2-chloro-4-fluorophenyl)carbamoyl]-2-methylcyclohexyl}-5,7-dimethylpyrazolo[1,5-a]pyrimidine-3-carboxamide] | 0.12 | 0.12 |
| O=C(N[C@H]1CC[C@H](C(=O)Nc2ccc(F)cc2Cl)CC1)c1cnn2cccnc12 [Example 43, N-{trans-4-[(2-chloro-4-fluorophenyl)carbamoyl]cyclohexyl}pyrazolo[1,5-a]pyrimidine-3-carboxamide] | 0.13 | 0.081 |
| Cc1cc(C)n2ncc(C(=O)N[C@H]3CC[C@H](C(=O)Nc4ccc(F)cc4Cl)CC3)c2n1 [Example 44, N-{trans-4-[(2-chloro-4-fluorophenyl)carbamoyl]cyclohexyl}-5,7-dimethylpyrazolo[1,5-a]pyrimidine-3-carboxamide] | 0.081 | 0.048 |
| O=C(N[C@H]1CC[C@H](C(=O)Nc2ccc(F)cc2Cl)CC1)c1cnc2cccnn12 [Example 45, N-{trans-4-[(2-chloro-4-fluorophenyl)carbamoyl]cyclohexyl}imidazo[1,2-b]pyridazine-3-carboxamide] | 0.16 | 0.31 |
